In ChEMBL document CHEMBL1158733, “Iso-, nor-, and dinor-spiculoic acids A, polyketides from the marine sponge Plakortis zyggompha” (2005) one finds GI50 and Activity data, which are given here for three compounds.

Usually GI50 stands for the concentration giving 50% growth inhibition. Read a low GI50 as more potent growth inhibition.

Activity calls are given as the source filed them. The calls are words filed in the database; no cut-off is given here. Some results are limits rather than exact numbers.

Common to all, as to type: functional
One experiment concerns A549. The experiment can be described thus: Cytotoxicity against human A549 cells SRB assay.
A further experiment deals with MDA-MB-231. Kind of experiment: Cytotoxicity against human MDA-MB-231 cells SRB assay. (In general: In SRB staining, fixed cells bind dye roughly in proportion to their protein.)
The next experiment concerns HT-29. The experiment can be described thus: Cytotoxicity against human HT-29 cells SRB assay.

Consider `CCC1=C[C@](/C=C/c2ccccc2)(CC)[C@@](CC)(C(=O)O)[C@H]2[C@H]1[C@@H](CC)C(=O)[C@@H]2C` [ISOSPICULOIC ACID A], for which the GI50 in the experiment with A549 was 15 µM; in the experiment on MDA-MB-231, > 25 µM; in the experiment with HT-29 it was 15 µM.

As to `CC[C@@]1(/C=C/c2ccccc2)C=C(C)[C@H]2[C@@H]([C@@H](C)C(=O)[C@@H]2C)[C@]1(CC)C(=O)O`, the result in the experiment with A549, in the experiment with MDA-MB-231 and with HT-29 was inactive.

Take `CCC1=C[C@](/C=C/c2ccccc2)(CC)[C@@](CC)(C(=O)O)[C@H]2[C@H]1[C@@H](C)C(=O)[C@@H]2C` [NOR-SPICULOIC ACID A]: the GI50 with A549 was 15 µM; in the experiment with MDA-MB-231, > 25 µM; in the experiment with HT-29 it was 15 µM.
